pIC50: −log10 of the molar value.
Experiments:
[1] = target: T1, HCV polymerase (NS5B) type 1b (Hepatitis C virus genotype 1b, UniProt P26663); assay: Assay of enzyme (HCV polymerase) inhibitory activity, type 1b enzyme; type: biochemical, HCV BK strain (type 1b); details: HCV polymerase inhibitory activity IC50, 1b, type 1b enzyme
T1 construct: a region encoding NS5B (J Virol 1991 March, 65(3), 1105-13, 544 amino acids after deletion of 47 amino acids on the C-terminal); 6xHis (C); made in house; host or cells: Escherichia coli
How it was run: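 IC50 derived from [3H]UTP incorporation into TCA-insoluble RNA, compared with and without test compound. Reaction (25 °C, 60 min, Tris pH 7.5, 5 mM MgCl2): E. coli-expressed 1b NS5B Δ47 with His tag at 0.5 μg/ml, 5 μg/ml run-off substrate RNA, ATP/GTP/CTP 50 μM, UTP 2 μM.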

[2] = target: T2, HCV polymerase (NS5B) type 1a (Hepatitis C virus genotype 1a, UniProt P26664); assay: Assay of enzyme (HCV polymerase) inhibitory activity, type 1a enzyme; type: biochemical, HCV type 1a (cloned from the blood of patients); details: HCV polymerase inhibitory activity IC50, 1a, type 1a enzyme
T2 construct: made in house; host or cells: Escherichia coli (by the 'similar method' of the 1b enzyme)
How it was run: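 Reactions ran 60 min at 25° C in 20 mM Tris-HCl pH 7.5, 5 mM MgCl2, 50 mM NaCl, holding genotype 1a NS5B (1.5 μg/ml, Δ47 C-terminus, 6His), substrate RNA 5 μg/ml, UTP 2 μM with tritiated UTP and other NTPs 50 μM. IC50 derived from incorporated radiolabel in filter-trapped RNA relative to uninhibited reaction.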

Row | SMILES | pIC50 [1] | pIC50 [2]
1 | O=C(NCc1ccc(OC(F)F)cc1)[C@H]1CN(c2nn3ccc(=O)nc3s2)CCN1S(=O)(=O)c1ccc(C(F)(F)F)cc1 [Example 1057, (R)-4-(7-oxo-7H-[1,3,4]thiadiazolo[3,2-a]pyrimidin-2-yl)-1-(4-trifluoromethyl-benzenesulfonyl)-piperazine-2-carboxylic acid 4-difluoromethoxy-benzylamide] | > 7.00 | > 7.00
2 | O=C(NCc1ccc(OC(F)(F)F)cc1)[C@H]1CN(c2nn3ccc(=O)nc3s2)CCN1S(=O)(=O)c1ccc(OC(F)F)cc1 [Example 1058, (R)-1-(4-difluoromethoxy-benzenesulfonyl)-4-(7-oxo-7H-[1,3,4]thiadiazolo[3,2-a]pyrimidin-2-yl)-piperazine-2-carboxylic acid 4-trifluoromethoxy-benzylamide] | > 7.00 | > 7.00
3 | O=C(NCc1ccc(OC(F)(F)F)cc1)[C@H]1CN(c2nn3ccc(=O)nc3s2)CCN1S(=O)(=O)c1ccc(C(F)(F)F)cc1 [Example 1059, (R)-4-(7-oxo-7H-[1,3,4]thiadiazolo[3,2-a]pyrimidin-2-yl)-1-(4-trifluoromethyl-benzenesulfonyl)-piperazine-2-carboxylic acid 4-trifluoromethoxy-benzylamide] | > 7.00 | > 7.00
4 | CC(O)c1ncc2sc(N3CCN(S(=O)(=O)c4ccc(OC(F)(F)F)cc4)[C@@H](C(=O)NCc4ccc(OC(F)(F)F)cc4)C3)nc2n1 (stereo partly drawn) [Example 1060, (R)-4-[5-(1-hydroxy-ethyl)-thiazolo[4,5-d]pyrimidin-2-yl]-1-(4-trifluoromethoxy-benzenesulfonyl)-piperazine-2-carboxylic acid 4-trifluoromethoxy-benzylamide] | > 7.00 | > 7.00
5 | O=C(NCc1ccc(OC(F)F)c(F)c1)[C@H]1CN(c2nc3nc(C(F)(F)F)ncc3s2)CCN1S(=O)(=O)c1ccc(OC(F)(F)F)cc1 [Example 1061, (R)-1-(4-trifluoromethoxy-benzenesulfonyl)-4-(5-trifluoromethyl-thiazolo[4,5-d]pyrimidin-2-yl)-piperazine-2-carboxylic acid 4-difluoromethoxy-3-fluoro-benzylamide] | > 7.00 | > 7.00
6 | O=C(NCc1ccc(OC(F)(F)F)cc1)[C@H]1CN(c2nc3ccc(=O)[nH]c3s2)CCN1S(=O)(=O)c1ccc(OC(F)(F)F)cc1 [Example 1062, (R)-4-(5-oxo-4,5-dihydro-thiazolo[5,4-b]pyridin-2-yl)-1-(4-trifluoromethoxy-benzenesulfonyl)-piperazine-2-carboxylic acid 4-trifluoromethoxy-benzylamide] | > 7.00 | > 7.00
7 | O=C(NCc1ccc(OC(F)F)cc1)[C@H]1CN(c2nn3ccc(=O)nc3s2)CCN1S(=O)(=O)c1ccc(OC(F)F)cc1 [Example 1063, (R)-1-(4-difluoromethoxy-benzenesulfonyl)-4-(7-oxo-7H-[1,3,4]thiadiazolo[3,2-a]pyrimidin-2-yl)-piperazine-2-carboxylic acid 4-difluoromethoxy-benzylamide] | > 7.00 | > 7.00
8 | CCCc1ccc(CNC(=O)[C@H]2CN(c3nc4c(C(=O)OCC)cncc4s3)CCN2S(=O)(=O)c2ccc(CC)cc2)cc1 [Example 1064, 2-[(R)-4-(4-ethyl-benzenesulfonyl)-3-(4-propyl-benzylcarbamoyl)-piperazin-1-yl]-thiazolo[5,4-c]pyridine-7-carboxylic acid ethyl ester] | > 7.00 | > 7.00
9 | CCCc1ccc(CNC(=O)[C@H]2CN(c3nc4c(C(=O)O)cncc4s3)CCN2S(=O)(=O)c2ccc(CC)cc2)cc1 [Example 1065, 2-[(R)-4-(4-ethyl-benzenesulfonyl)-3-(4-propyl-benzylcarbamoyl)-piperazin-1-yl]-thiazolo[5,4-c]pyridine-7-carboxylic acid] | > 7.00 | > 7.00
10 | O=C(NCc1ccc(OC(F)F)cc1)[C@H]1CN(c2nn3c(C(F)(F)F)cc(=O)nc3s2)CCN1S(=O)(=O)c1ccc(OC(F)(F)F)cc1 [Example 1066, (R)-4-(7-oxo-5-trifluoromethyl-7H-[1,3,4]thiadiazolo[3,2-a]pyrimidin-2-yl)-1-(4-trifluoromethoxy-benzenesulfonyl)-piperazine-2-carboxylic acid 4-difluoromethoxy-benzylamide] | > 7.00 | > 7.00
11 | O=C(NCc1ccc(OC(F)(F)F)cc1)[C@H]1CN(c2nn3c(C(F)(F)F)cc(=O)nc3s2)CCN1S(=O)(=O)c1ccc(C(F)(F)F)cc1 [Example 1067, (R)-4-(7-oxo-5-trifluoromethyl-7H-[1,3,4]thiadiazolo[3,2-a]pyrimidin-2-yl)-1-(4-trifluoromethyl-benzenesulfonyl)-piperazine-2-carboxylic acid 4-trifluoromethoxy-benzylamide] | > 7.00 | > 7.00
12 | O=C(NCc1ccc(OC(F)F)cc1)[C@H]1CN(c2nn3c(C(F)(F)F)cc(=O)nc3s2)CCN1S(=O)(=O)c1ccc(C(F)(F)F)cc1 [Example 1068, (R)-4-(7-oxo-5-trifluoromethyl-7H-[1,3,4]thiadiazolo[3,2-a]pyrimidin-2-yl)-1-(4-trifluoromethyl-benzenesulfonyl)-piperazine-2-carboxylic acid 4-difluoromethoxy-benzylamide] | > 7.00 | > 7.00
13 | O=C(NCc1ccc(OC(F)(F)F)cc1)[C@H]1CN(c2nc3nc(C4CCC4)ncc3s2)CCN1S(=O)(=O)c1ccc(OC(F)(F)F)cc1 [Example 1069, (R)-4-(5-cyclobutyl-thiazolo[4,5-d]pyrimidin-2-yl)-1-(4-trifluoromethoxy-benzenesulfonyl)-piperazine-2-carboxylic acid 4-trifluoromethoxy-benzylamide] | > 7.00 | > 7.00
14 | COCCc1ncc2sc(N3CCN(S(=O)(=O)c4ccc(OC(F)(F)F)cc4)[C@@H](C(=O)NCc4ccc(OC(F)(F)F)cc4)C3)nc2n1 [Example 1070, (R)-4-[5-(2-methoxy-ethyl)-thiazolo[4,5-d]pyrimidin-2-yl]-1-(4-trifluoromethoxy-benzenesulfonyl)-piperazine-2-carboxylic acid 4-trifluoromethoxy-benzylamide] | > 7.00 | > 7.00
15 | COCCn1ncc2sc(N3CCN(S(=O)(=O)c4ccc(OC(F)(F)F)cc4)[C@@H](C(=O)NCc4ccc(OC(F)(F)F)cc4)C3)nc2c1=O [Example 1071, (R)-4-[5-(2-methoxy-ethyl)-4-oxo-4,5-dihydro-thiazolo[4,5-d]pyridazin-2-yl]-1-(4-trifluoromethoxy-benzenesulfonyl)-piperazine-2-carboxylic acid 4-trifluoromethoxy-benzylamide] | > 7.00 | > 7.00
16 | O=C(NCc1ccc(OC(F)(F)F)cc1)[C@H]1CN(c2nc3nc(C4CCC4)ncc3s2)CCN1S(=O)(=O)c1ccc(C(F)(F)F)cc1 [Example 1072, (R)-4-(5-cyclobutyl-thiazolo[4,5-d]pyrimidin-2-yl)-1-(4-trifluoromethyl-benzenesulfonyl)-piperazine-2-carboxylic acid 4-trifluoromethoxy-benzylamide] | > 7.00 | > 7.00
17 | O=C(NCc1ccc(OC(F)F)c(F)c1)[C@H]1CN(c2nc3nc(C4CC4)ncc3s2)CCN1S(=O)(=O)c1ccc(OC(F)(F)F)cc1 [Example 1073, (R)-4-(5-cyclopropyl-thiazolo[4,5-d]pyrimidin-2-yl)-1-(4-trifluoromethoxy-benzenesulfonyl)-piperazine-2-carboxylic acid 4-difluoromethoxy-3-fluoro-benzylamide] | > 7.00 | > 7.00
18 | O=C(NCc1ccc(OC(F)F)c(F)c1)[C@H]1CN(c2nc3nc(C4CC4)ncc3s2)CCN1S(=O)(=O)c1ccc(C(F)(F)F)cc1 [Example 1074, (R)-4-(5-cyclopropyl-thiazolo[4,5-d]pyrimidin-2-yl)-1-(4-trifluoromethyl-benzenesulfonyl)-piperazine-2-carboxylic acid 4-difluoromethoxy-3-fluoro-benzylamide] | > 7.00 | > 7.00
19 | CC(C)(O)c1ncc2sc(N3CCN(S(=O)(=O)c4ccc(C(F)(F)F)cc4)[C@@H](C(=O)NCc4ccc(OC(F)(F)F)cc4)C3)nc2n1 [Example 1075, (R)-4-[5-(1-hydroxy-1-methyl-ethyl)-thiazolo[4,5-d]pyrimidin-2-yl]-1-(4-trifluoromethyl-benzenesulfonyl)-piperazine-2-carboxylic acid 4-trifluoromethoxy-benzylamide] | > 7.00 | > 7.00
20 | COCC1(c2ncc3sc(N4CCN(S(=O)(=O)c5ccc(OC(F)(F)F)cc5)[C@@H](C(=O)NCc5ccc(OC(F)(F)F)cc5)C4)nc3n2)CC1 [Example 1076, (R)-4-[5-(1-methoxymethyl-cyclopropyl)-thiazolo[4,5-d]pyrimidin-2-yl]-1-(4-trifluoromethoxy-benzenesulfonyl)-piperazine-2-carboxylic acid 4-trifluoromethoxy-benzylamide] | > 7.00 | > 7.00
21 | O=C(NCc1ccc(OC(F)(F)F)cc1)[C@H]1CN(c2nc3nc(C4(CO)CC4)ncc3s2)CCN1S(=O)(=O)c1ccc(OC(F)(F)F)cc1 [Example 1077, (R)-4-[5-(1-hydroxymethyl-cyclopropyl)-thiazolo[4,5-d]pyrimidin-2-yl]-1-(4-trifluoromethoxy-benzenesulfonyl)-piperazine-2-carboxylic acid 4-trifluoromethoxy-benzylamide] | > 7.00 | > 7.00

Source: patent US8017612B2, “Piperazine compound and use thereof as a HCV polymerase inhibitor” (priority 2006, dated 2011)
